Common to all, as to assay type: biochemical
Assay [1] has as its system Human plasma. Nature of the assay: Human plasma anticoagulation, thrombin time (TT). The conditions noted are these: concentration required to double the thrombin time, linear extrapolation. On the procedure:
(§1) Dog plasma and rat plasma is obtained from conscious mixed-breed hounds (either sex, Hazelton-LRE, Kalamazoo, Mich., U.S.A.) or from anesthetized male Sprague-Dawley rats (Harlan Sprague-Dawley, Inc., Indianapolis, Ind., U.S.A.) by venipuncture into 3.8 percent citrate. Fibrinogen is prepared from in-date ACD human blood as the fraction I-2 according to previous procedures and specifications. […] Human fibrinogen is also purchased as 98 percent pure/plasmin free from American Diagnostica, Greenwich, Conn. Coagulation reagents ACTIN, Thromboplastin, and Human plasma are from Baxter Healthcare Corp., Dade Division, Miami, Fla. Bovine thrombin from Parke-Davis ([…], Mich.) is used for coagulation assays in plasma.
(§2) Coagulation assay procedures are as previously described. […] A CoAScreener coagulation instrument (American LABor, Inc.) is used for all coagulation assay measurements. The prothrombin time (PT) is measured by adding 0.05 mL saline and 0.05 mL Thromboplastin-C reagent to 0.05 mL test plasma. The activated partial thromboplastin time (APTT) is measured by incubation of 0.05 mL test plasma with 0.05 mL Actin reagent for 120 seconds followed by 0.05 mL CaCl2 (0.02M). The thrombin time (TT) is measured by adding 0.05 mL saline and 0.05 mL thrombin (10 NIH units/mL) to 0.05 mL test plasma. The compounds of Formula I are added to human or animal plasma over a wide range of concentrations to determine prolongation effects on the APTT, PT, and TT assays. Linear extrapolations are performed to estimate the concentrations required to double the clotting time for each assay.

Assay [2] concerns Human plasma. The assay can be described thus: Human plasma anticoagulation, activated partial thromboplastin time (APTT). The conditions noted are these: concentration required to double the APTT, linear extrapolation. On the procedure:
as §1, §2

Assay [3] concerns Human plasma. Nature of the assay: Human plasma anticoagulation, prothrombin time (PT). The settings on record: concentration required to double the PT, linear extrapolation. The method, then: as §1, §2

We go through 22 compounds from patent US5914319A, “Antithrombotic agents” (Eli Lilly and Company, priority 1995, dated 1999).

Where a name gives a salt, the structure may show the parent alone.

Regarding `N=C(N)N1CCC(CCNC(=O)[C@@H]2CCCN2C(=O)[C@@H](CC2CCCCC2)NCC(=O)O)CC1` [Example 57, HO2 CCH2 -D-Cha-Pro-4-NHCH2 CH2 -1-amidinopiperidine.HCl], the “Human Plasma Anticoagulation 2× Clotting time (ng/mL) TT” value in assay [1] was 14 ng/mL. Further, the “Human Plasma Anticoagulation 2× Clotting time (ng/mL) APTT” value in assay [2] is recorded as 360 ng/mL. The “Human Plasma Anticoagulation 2× Clotting time (ng/mL) PT” value in assay [3] was 340 ng/mL.
Consider `Cl.O=C(O)CN[C@H](CC1CCCCC1)C(=O)N1CCC[C@H]1C(=O)NCC1=CCNCC1` [Example 58, HO2 CCH2 -D-Cha-Pro-4-NHCH2 -3,4-dehydropiperidine.HCl], for which, in assay [1], the “Human Plasma Anticoagulation 2× Clotting time (ng/mL) TT” value is 710 ng/mL. The “Human Plasma Anticoagulation 2× Clotting time (ng/mL) APTT” value in assay [2] was 14,300 ng/mL. Also, the “Human Plasma Anticoagulation 2× Clotting time (ng/mL) PT” value in assay [3] was 11,400 ng/mL.
Consider `Cl.O=C(O)CN[C@H](CC1CCCCC1)C(=O)N1CCC[C@H]1C(=O)NCCC1=CCNCC1` [Example 59, HO2 CCH2 -D-Cha-Pro-4-NHCH2 CH2 -3,4-dehydropiperidine.HCl], for which, in assay [1], the “Human Plasma Anticoagulation 2× Clotting time (ng/mL) TT” value is on record as 420 ng/mL. Further, in assay [2], the “Human Plasma Anticoagulation 2× Clotting time (ng/mL) APTT” value is given as 5,500 ng/mL. Besides, the “Human Plasma Anticoagulation 2× Clotting time (ng/mL) PT” value in assay [3] is 7,000 ng/mL.
For `Cl.O=C(O)CN[C@H](CC1CCCCC1)C(=O)N1CCC[C@H]1C(=O)NCCCC1=CCNCC1` [Example 60, HO2 CCH2 -D-Cha-Pro-4-NHCH2 CH2 CH2 -3,4-dehydropiperidine.HCl], in that order: 3,200 ng/mL, 22,200 ng/mL and 77,700 ng/mL.
For `N=C(N)c1ccc(CNC(=O)[C@@H]2CCCN2C(=O)[C@@H](CC2CCCCC2)NCC(=O)O)nc1` [Example 66, HO2 CCH2 -D-Cha-Pro-2-NHCH2 -5-amidinopyridine.HCl], the “Human Plasma Anticoagulation 2× Clotting time (ng/mL) TT” value in assay [1] is listed as 7.9 ng/mL. In addition, in assay [2], the “Human Plasma Anticoagulation 2× Clotting time (ng/mL) APTT” value is on record as 180 ng/mL. Moreover, the “Human Plasma Anticoagulation 2× Clotting time (ng/mL) PT” value in assay [3] is on record as 270 ng/mL.
For the compound `N=C(N)C1CCC(CNC(=O)[C@@H]2CCCN2C(=O)[C@@H](CC2CCCCC2)NCC(=O)O)NC1` (stereo partly drawn) [Example 67, HO2 CCH2 -D-Cha-Pro-2-NHCH2 -5-amidinopiperidine.HCl], in assay [1], the “Human Plasma Anticoagulation 2× Clotting time (ng/mL) TT” value is reported as 34. ng/mL. Further, in assay [2], the “Human Plasma Anticoagulation 2× Clotting time (ng/mL) APTT” value is given as 1,800 ng/mL. The “Human Plasma Anticoagulation 2× Clotting time (ng/mL) PT” value in assay [3] is listed as 1,300 ng/mL.
For `Cl.N=C(N)C1=CNC(CNC(=O)[C@@H]2CCCN2C(=O)[C@@H](CC2CCCCC2)NCC(=O)O)CC1` (stereo partly drawn) [Example 68, HO2 CCH2 -D-Cha-Pro-2-NHCH2 -5-amidino-5,6-dehydro-piperidine.HCl], in that order: 4. ng/mL, 49 ng/mL and 190 ng/mL.
As to `Cl.N=C(N)c1ccc(CNC(=O)[C@@H]2CCCN2C(=O)[C@@H](CC2CCCCC2)NCC(=O)O)nn1` [Example 69, HO2 CCH2 -D-Cha-Pro-3-NHCH2 -6-amidinopyridazine.HCl], the “Human Plasma Anticoagulation 2× Clotting time (ng/mL) TT” value in assay [1] is reported as 5. ng/mL. Also, the “Human Plasma Anticoagulation 2× Clotting time (ng/mL) APTT” value in assay [2] was 110 ng/mL. The “Human Plasma Anticoagulation 2× Clotting time (ng/mL) PT” value in assay [3] is on record as 220 ng/mL.
As for `Cl.N=C(N)N1CC=C(CNC(=O)[C@@H]2CCCN2C(=O)[C@@H](CC2CCCCC2)NCC(=O)O)CC1` [Example 70, HO2 CCH2 -D-Cha-Pro-4-NHCH2 -1-amidino-3,4-dehydro-piperidine.HCl], in assay [1], the “Human Plasma Anticoagulation 2× Clotting time (ng/mL) TT” value was 2 ng/mL. Besides, in assay [2], the “Human Plasma Anticoagulation 2× Clotting time (ng/mL) APTT” value is 160 ng/mL. Moreover, the “Human Plasma Anticoagulation 2× Clotting time (ng/mL) PT” value in assay [3] is listed as 180 ng/mL.
For `Cl.N=C(N)c1ccc(CNC(=O)[C@@H]2CCCN2C(=O)[C@@H](CC2CCCCC2)NCC(=O)O)c(F)c1` [Example 71, HO2 CCH2 -D-Cha-Pro-4-NHCH2 -3-F-benzamidine.HCl], in that order: 1 ng/mL, 89 ng/mL and 150 ng/mL.
In the same order, the values of `Cl.N=C(N)c1cc(F)c(CNC(=O)[C@@H]2CCCN2C(=O)[C@@H](CC2CCCCC2)NCC(=O)O)c(F)c1` [Example 72, HO2 CCH2 -D-Cha-Pro-4-NHCH2 -3,5-F2 -benzamidine.HCl] are 1 ng/mL, 160 ng/mL and 160 ng/mL.
`Cl.Nc1cc(CNC(=O)[C@@H]2CCCN2C(=O)[C@@H](CC2CCCCC2)NCC(=O)O)ccn1` [Example 73, HO2 CCH2 -D-Cha-Pro-4-NHCH2 -2-aminopyridine.HCl]: the “Human Plasma Anticoagulation 2× Clotting time (ng/mL) TT” value in assay [1] was 21 ng/mL. Besides, the “Human Plasma Anticoagulation 2× Clotting time (ng/mL) APTT” value in assay [2] is listed as 340 ng/mL. Besides, the “Human Plasma Anticoagulation 2× Clotting time (ng/mL) PT” value in assay [3] was 330 ng/mL.
In the same order, the values of `Cl.Nc1ccc(CNC(=O)[C@@H]2CCCN2C(=O)[C@@H](CC2CCCCC2)NCC(=O)O)cn1` [Example 74, HO2 CCH2 -D-Cha-Pro-5-NHCH2 -2-aminopyridine.HCl] are 20 ng/mL, 420 ng/mL and 350 ng/mL.
In the same order, the values of `Cl.Nc1cc(CCNC(=O)[C@@H]2CCCN2C(=O)[C@@H](CC2CCCCC2)NCC(=O)O)ccn1` [Example 76, HO2 CCH2 -D-Cha-Pro-4-NHCH2 CH2 -2-aminopyridine.HCl] are 29 ng/mL, 490 ng/mL and 560 ng/mL.
Turning to `Nc1ccc(CNC(=O)[C@@H]2CCCN2C(=O)[C@@H](CC2CCCCC2)NCC(=O)O)cc1F` [Example 77, HO2 CCH2 -D-Cha-Pro-4-NHCH2 -2-F-aniline.HCl], in assay [1], the “Human Plasma Anticoagulation 2× Clotting time (ng/mL) TT” value is on record as 53 ng/mL. Further, the “Human Plasma Anticoagulation 2× Clotting time (ng/mL) APTT” value in assay [2] is recorded as 1,600 ng/mL. The “Human Plasma Anticoagulation 2× Clotting time (ng/mL) PT” value in assay [3] is 890 ng/mL.
In the same order, the values of `NCc1ccc(CNC(=O)[C@@H]2CCCN2C(=O)[C@@H](CC2CCCCC2)NCC(=O)O)cc1` [Example 78, HO2 CCH2 -D-Cha-Pro-4-NHCH2 C6 H4 CH2 NH2.HCl] are 46 ng/mL, 430 ng/mL and 760 ng/mL.
For the compound `NCC1CCC(CNC(=O)[C@@H]2CCCN2C(=O)[C@@H](CC2CCCCC2)NCC(=O)O)CC1` (stereo partly drawn) [Example 79, HO2 CCH2 -D-Cha-Pro-4-NHCH2 C6 H10 CH2 NH2.HCl], in assay [1], the “Human Plasma Anticoagulation 2× Clotting time (ng/mL) TT” value is given as 140 ng/mL. The “Human Plasma Anticoagulation 2× Clotting time (ng/mL) APTT” value in assay [2] is listed as 1,700 ng/mL. Besides, in assay [3], the “Human Plasma Anticoagulation 2× Clotting time (ng/mL) PT” value is 2,400 ng/mL.
`CCS(=O)(=O)N[C@H](CC1CCCCC1)C(=O)N1CCC[C@H]1C(=O)NCc1ccc(C(=N)N)cc1.Cl` [Example 80, EtSO2 -D-Cha-Pro-4-NHCH2 C6 H4 C(NH)NH2.HCl]: the “Human Plasma Anticoagulation 2× Clotting time (ng/mL) TT” value in assay [1] was 4 ng/mL. In addition, the “Human Plasma Anticoagulation 2× Clotting time (ng/mL) APTT” value in assay [2] is listed as 40 ng/mL. In addition, in assay [3], the “Human Plasma Anticoagulation 2× Clotting time (ng/mL) PT” value was 130 ng/mL.
Take `CCS(=O)(=O)N[C@H](CC1CCCCC1)C(=O)N1CCC[C@H]1C(=O)NCc1ccc(CN)cc1` [Example 81, EtSO2 -D-Cha-Pro-4-NHCH2 C6 H4 CH2 NH2.HCl]: the “Human Plasma Anticoagulation 2× Clotting time (ng/mL) TT” value in assay [1] was 110 ng/mL. For the same compound, in assay [2], the “Human Plasma Anticoagulation 2× Clotting time (ng/mL) APTT” value is 1,500 ng/mL. In addition, the “Human Plasma Anticoagulation 2× Clotting time (ng/mL) PT” value in assay [3] was 2,700 ng/mL.
In the same order, the values of `CCS(=O)(=O)N[C@H](CC1CCCCC1)C(=O)N1CCC[C@H]1C(=O)NCc1ccnc(N)c1.Cl` [Example 83, EtSO2 -D-Cha-Pro-4-NHCH2 -2-aminopyridine.HCl] are 91 ng/mL, 1,000 ng/mL and 1,300 ng/mL.
In the same order, the values of `CCS(=O)(=O)N[C@H](CC1CCCCC1)C(=O)N1CCC[C@H]1C(=O)NCc1ccc(N)nc1.Cl` [Example 84, EtSO2 -D-Cha-Pro-5-NHCH2 -2-aminopyridine.HCl] are 110 ng/mL, 1,500 ng/mL and 1,900 ng/mL.
In the same order, the values of `N=C(N)c1ccc(CNC(=O)[C@@H]2CCCN2C(=O)[C@@H](CC2CCCCC2)NCCCC(=O)O)cc1` [Example 85, HOOCCH2 CH2 CH2 -D-Cha-Pro-p-NHCH2 C6 H4 C(NH)NH2.HCl] are 4.9 ng/mL, 100 ng/mL and 197 ng/mL.
